Test systems include SNB-78; DLD-1; LXFL 529; RXF 631; HOP-18; KM-20L2; DMS-273; M19-MEL; XF498.
Holding throughout (test): NCI-60 cell line screen, 48 h

Each structure is given as a SMILES string.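 Cells were grown in 96-well plates and exposed to each compound for 48 hours at five concentrations; endpoints were interpolated linearly between bracketing concentrations, or set to the highest concentration if not reached. GI50: concentration for 50% inhibition of growth.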 Calls of active or inactive are those of the source. No stated cut-off is given here; in the data, active = GI50 up to about 1.1 µM and inactive = higher.

For `N=C(N)NCCCC(NCc1c2ccccc2[n+]([O-])c2ccccc12)C(=O)O` (stereo not given), the GI50 with SNB-78 is 66.7 µM (inactive); with DLD-1, 38.8 µM (inactive); with LXFL 529, 32.7 µM (inactive); in the experiment on RXF 631 it was 59.8 µM (inactive); in the experiment on HOP-18 it was > 100 µM (inactive); in the experiment on KM-20L2 it was 42.9 µM (inactive). For the same molecule, the GI50 with DMS-273 is 40.4 µM (inactive).
Consider `[O-][S+](Cc1cc2c(cc1Br)OCO2)c1ccccc1` (stereo not given), for which the GI50 with SNB-78 was > 100 µM (inactive); with DLD-1 it was 24.2 µM (inactive); with LXFL 529, 44 µM (inactive); with M19-MEL, 44.5 µM (inactive); in the experiment with HOP-18, 41.3 µM (inactive); with KM-20L2, 71.4 µM (inactive). In addition, the GI50 in the experiment on DMS-273 was 58.9 µM (inactive).
In the case of `Cc1nc(-c2ccccc2)cc2c1c(=O)oc1ccccc12`, the GI50 in the experiment on SNB-78, with DLD-1, in the experiment with LXFL 529, in the experiment with RXF 631, with HOP-18 and in the experiment on KM-20L2 was > 100 µM (inactive) throughout. Besides, in the experiment on DMS-273, the GI50 is > 100 µM (inactive).
Regarding `CCCNC(=O)c1cc2ccccc2cc1C(=O)OC`, the GI50 in the experiment on SNB-78, in the experiment on XF498, in the experiment on DLD-1, in the experiment with LXFL 529, in the experiment with RXF 631 and with M19-MEL was > 100 µM (inactive) throughout. For the same molecule, the GI50 in the experiment with HOP-18, in the experiment on KM-20L2 and in the experiment with DMS-273 was > 100 µM (inactive) each time.
Take `Cc1cc(=O)oc2c(C3=NN(C=O)C(c4ccccc4)C3)c(O)ccc12` (stereo not given): the GI50 with SNB-78 is 24.3 µM (inactive); in the experiment on XF498, 18.7 µM (inactive); in the experiment on DLD-1, > 100 µM (inactive); in the experiment with LXFL 529, > 100 µM (inactive); with RXF 631 it was 25.2 µM (inactive); in the experiment on M19-MEL, > 100 µM (inactive). Further, the GI50 in the experiment with HOP-18, in the experiment with KM-20L2 and with DMS-273 was > 100 µM (inactive) throughout.
On to `Cn1sc2ccccc2c1=S`, for which the GI50 was 15 µM (inactive) in the experiment with SNB-78; 11.9 µM (inactive) in the experiment on XF498; 3.07 µM (inactive) in the experiment on DLD-1; 14 µM (inactive) in the experiment with LXFL 529; 4.59 µM (inactive) in the experiment with M19-MEL; 11.2 µM (inactive) in the experiment on HOP-18. Further, the results for the GI50 in the experiment on KM-20L2 and in the experiment with DMS-273 were 13.7 µM (inactive) and 5.64 µM (inactive), respectively.
As to `Cc1nc(Nc2ccc(Cl)cc2)sc1C(=O)NNc1ccc([N+](=O)[O-])cc1[N+](=O)[O-]`, the GI50 is 39.1 µM (inactive) in the experiment with SNB-78; 16.9 µM (inactive) in the experiment with XF498; 14.2 µM (inactive) in the experiment on DLD-1; 17.1 µM (inactive) with LXFL 529; 22 µM (inactive) in the experiment with M19-MEL; 14 µM (inactive) in the experiment on HOP-18. Besides, the GI50 was 16.2 µM (inactive) with KM-20L2 and 19.5 µM (inactive) in the experiment with DMS-273.
Turning to `Cc1cc(NS(=O)(=O)c2ccc(NC(=O)c3cccn4c(=O)c5ccccc5nc34)cc2)no1`, the GI50 in the experiment on SNB-78, with XF498, in the experiment with DLD-1, with LXFL 529, with RXF 631 and with M19-MEL was > 100 µM (inactive) each time. Further, the GI50 with HOP-18, with KM-20L2 and in the experiment on DMS-273 was > 100 µM (inactive) in each case.
As to `O=c1[nH]c(=O)n(C2OC(CO)C(O)C2O)cc1/N=N/NCc1ccccc1` (stereo not given), the GI50 in the experiment with SNB-78 was > 100 µM (inactive); with XF498, > 100 µM (inactive); with DLD-1, > 60.1 µM (inactive); with LXFL 529, 98.2 µM (inactive); with RXF 631, > 100 µM (inactive); with M19-MEL it was > 100 µM (inactive). For the same molecule, the GI50 in the experiment on HOP-18 was > 100 µM (inactive); in the experiment with KM-20L2, > 100 µM (inactive); with DMS-273, > 71.6 µM (inactive).
Consider `Cc1ncc(CCl)c2c1OC(C)(C)OC2`, for which the GI50 in the experiment with SNB-78 is 39.7 µM (inactive); with XF498, 78.2 µM (inactive); in the experiment with DLD-1, 50.9 µM (inactive); in the experiment with LXFL 529, > 100 µM (inactive); with RXF 631, 30 µM (inactive); in the experiment with M19-MEL, 74 µM (inactive). The GI50 is 21.1 µM (inactive) in the experiment with HOP-18 and > 100 µM (inactive) in the experiment on KM-20L2.
As for `Cc1nc(C(=O)O)c2ccccc2n1`, the GI50 with SNB-78, with DLD-1, in the experiment on LXFL 529, in the experiment with KM-20L2 and with DMS-273 was > 100 µM (inactive) each time.
Regarding `CCCCOC(=O)NC(=O)c1cn(CCCOC(=O)CCCCCCCCC(=O)OCCCn2cc(C(=O)NC(=O)OCCCC)c(=O)n(C)c2=O)c(=O)n(C)c1=O`, the GI50 in the experiment with SNB-78, in the experiment with XF498, in the experiment with DLD-1, with LXFL 529, in the experiment on RXF 631 and in the experiment on M19-MEL was > 100 µM (inactive) each time. The GI50 with KM-20L2 and in the experiment with DMS-273 was > 100 µM (inactive) in each case.
For the molecule `CC1CCC2[C@@H](C)COC3O[C@]4(C)CCC1C32OO4` (stereo not given in full), the GI50 with SNB-78 was > 100 µM (inactive); with DLD-1 it was > 100 µM (inactive); with LXFL 529, 77.1 µM (inactive); in the experiment with HOP-18, > 100 µM (inactive); in the experiment with KM-20L2, > 100 µM (inactive); in the experiment on DMS-273, > 100 µM (inactive).
In the case of `COC(=O)C1=C(C)N(NC(=O)OC(C)(C)C)C(=O)C1=P(c1ccccc1)(c1ccccc1)c1ccccc1`, the GI50 with SNB-78, in the experiment on XF498, in the experiment on DLD-1, in the experiment on LXFL 529, in the experiment with M19-MEL and with HOP-18 was > 100 µM (inactive) each time. Besides, the figures for the GI50 with KM-20L2 and with DMS-273 were > 100 µM (inactive) and 35.2 µM (inactive), respectively.
For `CCN(CCO)CCNc1ccc(C)c2sc3ccccc3c(=O)c12`, the GI50 with SNB-78 was 7.05 µM (inactive); in the experiment on XF498 it was 3.31 µM (inactive); in the experiment with DLD-1, 3.83 µM (inactive); in the experiment with LXFL 529, 2.77 µM (inactive); with M19-MEL, 2 µM (inactive); with HOP-18, 11.9 µM (inactive). For the same molecule, the GI50 was 2.59 µM (inactive) in the experiment with KM-20L2 and 2.36 µM (inactive) in the experiment with DMS-273.
Take `CC(C)=CCC/C(C)=C/Cc1c(O)ccc2c1[nH]c1cc(O)c(C)cc12`: the GI50 is > 25 µM (inactive) in the experiment on SNB-78; 24.7 µM (inactive) in the experiment with XF498; 14.1 µM (inactive) in the experiment with DLD-1; 10.1 µM (inactive) in the experiment with LXFL 529; 15.5 µM (inactive) in the experiment with M19-MEL; 13.4 µM (inactive) in the experiment on KM-20L2. For the same molecule, the GI50 in the experiment with DMS-273 was 11 µM (inactive).
On to `CCN(CC)C1CC(O[C@H]2C[C@](O)(C(=O)CO)Cc3c(O)c4c(c(O)c32)C(=O)c2c(OC)cccc2C4=O)OC(C)C1O` (stereo not given in full), for which the GI50 is 0.08 µM (active) in the experiment on SNB-78; 0.0752 µM (active) with XF498; 0.0395 µM (active) with DLD-1; 0.0458 µM (active) with LXFL 529; 0.0655 µM (active) in the experiment on RXF 631; 0.0484 µM (active) in the experiment on M19-MEL. Moreover, the GI50 was 0.0733 µM (active) with KM-20L2 and < 0.0215 µM (active) with DMS-273.
As for `CCOc1ccc(OCC(=O)O)c2c1CCCC2=O`, the GI50 in the experiment on SNB-78, in the experiment with XF498, in the experiment on DLD-1, with LXFL 529, in the experiment on RXF 631 and in the experiment on M19-MEL was > 100 µM (inactive) in each case. For the same molecule, in the experiment on DMS-273, the GI50 is > 100 µM (inactive).
Take `CC(=O)OCc1ncccc1C(OC(C)=O)OC(C)=O`: the GI50 with SNB-78, in the experiment with XF498, in the experiment on DLD-1, in the experiment on LXFL 529, in the experiment on M19-MEL and in the experiment with HOP-18 was > 100 µM (inactive) in each case. Besides, the GI50 in the experiment with KM-20L2 and in the experiment with DMS-273 was > 100 µM (inactive) in each case.
With `CCN(CC)CCOC(c1ccccc1)c1ccccc1.CCOC(=O)Nc1ccc(S(=O)(=O)OC)cc1.CCOC(=O)Nc1ccc(S(=O)(=O)OC)cc1.Nc1ccc(C(=O)O)c(O)c1`, the GI50 in the experiment with SNB-78, in the experiment on DLD-1, in the experiment on LXFL 529, in the experiment with RXF 631, with M19-MEL and in the experiment on HOP-18 was > 100 µM (inactive) each time. For the same molecule, the GI50 in the experiment with KM-20L2 was > 100 µM (inactive).
In the case of `COc1ccc2cc3n(c(=O)c2c1)CCc1c-3cc(OC)c(OC)c1OC`, the GI50 was > 100 µM (inactive) with SNB-78; 50.7 µM (inactive) in the experiment with XF498; > 100 µM (inactive) with DLD-1; > 100 µM (inactive) in the experiment with LXFL 529; > 100 µM (inactive) in the experiment with M19-MEL; > 100 µM (inactive) in the experiment on HOP-18. Further, the GI50 with KM-20L2 and in the experiment on DMS-273 was > 100 µM (inactive) each time.
In the case of `CCN(CC)CCCC(C)Nc1c2cc(OC)cc(C)c2nc2c(C)c(Cl)ccc12` (stereo not given), the GI50 was 2.14 µM (inactive) in the experiment on SNB-78; 1.53 µM (inactive) with DLD-1; 1.58 µM (inactive) in the experiment with LXFL 529; 1.79 µM (inactive) in the experiment with RXF 631; 1.75 µM (inactive) in the experiment on M19-MEL; 1.56 µM (inactive) in the experiment with HOP-18. Also, the results for the GI50 with KM-20L2 and with DMS-273 were 1.86 µM (inactive) and 1.71 µM (inactive), respectively.
Consider `CCN(CC)/C(=C\Cl)Nc1ccccn1.[O-][Cl+3]([O-])([O-])O`, for which the GI50 in the experiment with SNB-78, with XF498, in the experiment with DLD-1, with LXFL 529, with RXF 631 and in the experiment with M19-MEL was > 100 µM (inactive) throughout. The GI50 with HOP-18, in the experiment on KM-20L2 and with DMS-273 was > 100 µM (inactive) each time.
On to `CCOC(=O)C(C)Sc1nnc(COc2ccccc2OC)n1-c1ccccc1` (stereo not given), for which the GI50 was > 100 µM (inactive) in the experiment on SNB-78; 37.2 µM (inactive) in the experiment with DLD-1; 28.8 µM (inactive) in the experiment on LXFL 529; > 100 µM (inactive) with M19-MEL; 77.4 µM (inactive) in the experiment on HOP-18; > 100 µM (inactive) in the experiment with KM-20L2. In addition, the GI50 in the experiment on DMS-273 is > 100 µM (inactive).

Values taken from ChEMBL document CHEMBL1201862, “PubChem BioAssay data set” (2004).
